Source: patent publication US8722652B2, “Acute treatment of social phobia” (Pherin Pharmaceuticals, Inc., priority 2005, dated 2014)

Columns and labels:
Assay type in all cases: in vivo, human
[1] = system: patients diagnosed with generalized anxiety disorder; assay: Acute anxiety symptom scores (HAM-A, COVI, CGI) after delivery to the vomeronasal organ of patients with generalized anxiety disorder
[2] = system: patients diagnosed with generalized social phobia; assay: Phase-2 randomized double-blind study: public speaking and social interaction challenges in social phobia patients, intranasal spray
Text: A Phase-2 Randomized, Double-blind, Crossover Study of the Use of Single Doses of [3β]-Androsta-4,16-dien-3-ol for Management of the Symptoms of Social phobia
The following describes a study of the effects of the vomeropherin [3β]-androsta-4,16-dien-3-ol on human female patients suffering from social phobia.
The study comprised 40 patients with clinical diagnosis of Social Phobia. Each patient was randomly assigned to one of the following double-blind treatment groups: 800 nanogram [3β]-Androsta-4,16-dien-3-ol or placebo delivered intranasally in spray form. Each patient participated in the Treatment Phase as follows.
First Visit: the patient visited the study center and the following activities were conducted during this visit: Pre-Challenge: After arrival at the study center, the patient completed self-reports of their usual anxiety symptoms. Public Speaking Challenge: The patient was administered a spray (50 microliters) of placebo to each nostril, and the procedures for the Public Speaking Challenge were then explained to the patient. The patient was given four minutes to prepare one of several topics for a four-minute speech, without notes, in front of an audience of several people who evaluated the speech and videotaped it. Immediately after completing the preparation period, the patient completed self-reports of their anticipatory anxiety and the Investigator then rated the patient's anticipatory anxiety. The patient gave their speech. Immediately after completing the speech, the patient completed self-reports of anxiety experienced during the speech. The Investigator then rated the anxiety experienced by the patient. Social Interaction Challenge: Approximately one hour after completion of the Public Speaking Challenge, the patient was administered another dose of placebo in each nostril, and the procedures for a Social Interaction Challenge appropriate for one of the patient's most-feared social interaction situations were then described to the patient. Then, the patient completed self-reports of their anticipatory anxiety and the Investigator rated the patient's anticipatory anxiety. Then, the patient participated in a four-minute mock social interaction while being observed by several raters and videotaped. Immediately after completing the social interaction, the patient completed self-reports of anxiety experienced during the interaction. Then, the Investigator rated the anxiety experienced by the patient. Those patients that during the first visit responded to placebo during the public speaking or the social interaction challenge were terminated from the study at that time. Patients non-responding to placebo during the first visit participated in a second visit where they were randomly dosed again with placebo, or with 800 nanograms androsta-4,16-dien-3β-ol per nostril (total dose=1,600 nanograms) delivered in spray form. Each patient was challenged and also the anxiety symptoms were scores using the same procedure performed during first visit.
The mean score obtained during the first visit (baseline scores) for each, anticipatory public speaking, performance public speaking, anticipatory social interaction and performance social interaction, was subtracted from the mean score (same parameter) obtained during the second visit. The result is a measure of symptom improvement.

vomeronasal receptors = assay: Electrovomerogram dose-response (mass receptor potential of the vomeronasal receptors), local aerosol delivery with Multifunctional Miniprobe
Protocol: The effective amount of androsta-4,16-dien-3β-ol administered was determined in dose-response studies where the amplitude of the mass receptor potential of the vomeronasal receptors (electrogram of the vomeronasal organ or electrovomerogram) was recorded from volunteers diagnosed with generalized anxiety disorder (GAD), while locally delivering different concentrations of the steroid in aerosol form, using a Multifunctional Miniprobe® described in U.S. Pat. No. 5,303,703. This electrovomerogram allows precise measuring of the concentration dependent effect of locally delivered androsta-4,16-dien-3β-ol to vomeronasal receptors, and calculation of the half-maximal concentration, the Effective Concentration 50 (EC50).
Androsta-4,16-dien-3β-ol was delivered directly to the vomeronasal organ pit of anxious patients using the Multifunctional Miniprobe®, consisting of a concentric arrangement of Teflon® tubes having an inner non-polarized silver wire recording-electrode. […] The electrovomerogram recorded with the surface silver-wire electrode was electronically amplified and continuously monitored in a computer and a dose-response curve was obtained by plotting the peak amplitude of electrovomerograms produced by several different amounts of androsta-4,16-dien-3β-ol (ranging from 0 (control) to 1000 picograms). […]

[3] = 1 nanogram to the vomeronasal organ, GAD patients n = 20
[4] = 1600 nanogram intranasally, n = 40, Mean Baseline Score − Mean Score After Treatment

For C[C@@]12C=CC[C@H]1[C@@H]1CCC3=C[C@@H](O)CC[C@]3(C)[C@H]1CC2 [androsta-4,16-dien-3β-ol], the “Mean acute symptom improvement, CGI (Mean Baseline Score − Mean Score after Treatment)” value [1, 3] was 1.17, the “Mean acute symptom improvement, COVI (Mean Baseline Score − Mean Score after Treatment)” value [1, 3] was 2.8 and the “Mean acute symptom improvement, HAM-A (Mean Baseline Score − Mean Score after Treatment)” value [1, 3] was 10.6. The “Acute anxiety symptoms scores (HAM-A, COVI, CGI)” value ([1]; concentrations above the EC50, 20 human female GAD patients, effect lasting 30 minutes after intranasal administration) was “significantly reduced”, the “Anticipatory and Performance anxiety scores” value ([2]; 5 minutes after administration, Social Interaction and Public Speaking) was “notably and significantly decreased” and the “Mean Symptom Improvement, Anticipatory Public Speaking Anxiety” value [2, 4] was 10.417. The “Mean Symptom Improvement, Anticipatory Social Interaction Anxiety” value [2, 4] was 12.166, the “Mean Symptom Improvement, Performance Public Speaking Anxiety” value [2, 4] was 26.294 and the “Mean Symptom Improvement, Performance Social Interaction Anxiety” value [2, 4] was 14.197. For the same molecule, the “Symptom improvement versus placebo” value ([2]; second visit versus first-visit baseline scores) was “much greater and significant symptom improvement than placebo”, the “EC50 (half-maximal concentration, electrovomerogram peak amplitude)” value (vomeronasal receptors; delivered directly to vomeronasal organ pit, aerosol from propylene glycol, GAD volunteers) was 0.5 nanograms and the KD (vomeronasal receptors; set equal to EC50 (linear receptor occupancy-response, model of A. J. Clark)) was 0.5 ng.
